These results are taken from ChEMBL document CHEMBL1142720, “Fluoro-olefins as peptidomimetic inhibitors of dipeptidyl peptidases” (J Med Chem, 2005).

Dipeptidyl peptidase 4, sequence (P27487 whole entry): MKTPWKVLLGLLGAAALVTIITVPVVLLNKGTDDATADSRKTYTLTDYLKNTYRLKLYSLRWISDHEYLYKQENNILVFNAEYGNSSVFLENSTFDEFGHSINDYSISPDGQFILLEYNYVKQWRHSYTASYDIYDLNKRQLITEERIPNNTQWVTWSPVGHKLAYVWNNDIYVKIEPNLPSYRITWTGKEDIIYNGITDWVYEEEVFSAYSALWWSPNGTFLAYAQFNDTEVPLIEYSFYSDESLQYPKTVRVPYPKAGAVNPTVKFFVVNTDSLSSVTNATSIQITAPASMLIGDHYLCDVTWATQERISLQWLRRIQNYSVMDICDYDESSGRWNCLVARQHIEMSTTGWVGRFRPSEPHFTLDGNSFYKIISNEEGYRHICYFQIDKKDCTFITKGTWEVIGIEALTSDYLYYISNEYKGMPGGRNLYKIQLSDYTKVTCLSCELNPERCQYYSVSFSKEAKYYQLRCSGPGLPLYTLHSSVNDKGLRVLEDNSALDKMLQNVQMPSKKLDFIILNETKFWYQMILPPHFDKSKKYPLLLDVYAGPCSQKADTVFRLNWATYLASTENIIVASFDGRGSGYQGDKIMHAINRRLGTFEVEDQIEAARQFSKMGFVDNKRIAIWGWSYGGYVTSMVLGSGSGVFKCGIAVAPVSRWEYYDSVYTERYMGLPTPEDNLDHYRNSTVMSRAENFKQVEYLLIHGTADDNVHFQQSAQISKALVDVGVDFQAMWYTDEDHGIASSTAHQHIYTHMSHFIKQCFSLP

The first assay concerns the target Dipeptidyl peptidase 2 (Homo sapiens, UniProt Q9UHL4). Briefly: Inhibitory concentration against human Dipeptidylpeptidase II.
One may read the IC50 as the concentration needed to halve the response being measured. A high value points to weaker potency. `O=C(CNCc1ccccc1)N1CCCC1`: the midpoint of inhibition, the IC50, lay at 500 µM. Regarding `O=C(CNCc1ccccc1)N1CCCCC1`, the IC50 is 397 µM.

Regarding `O=C(CNC1CCCCC1)N1CCCCC1`, the IC50 came to 177 µM.

In turn, `O=C(CNC1CCCCC1)N1CCCC1` yielded an IC50 of 276 µM. Compound `N#CC1CCC/C1=C(/F)CNC12CC3CC(CC(C3)C1)C2` (centres undefined) gave a 50% inhibitory concentration (IC50) of over 100 µM. For the compound `N#CC1CCC/C1=C(\F)CNC12CC3CC(CC(C3)C1)C2` (centres undefined), the IC50 was over 100 µM. As to `FC(CNC1CCCCC1)=C1CCCCC1`, the IC50 worked out at 500 µM.

The next assay has as its target Dipeptidyl peptidase 4 (Homo sapiens, UniProt P27487). In words: Inhibitory concentration against human Dipeptidylpeptidase IV.
`N#CC1CCC/C1=C(/F)CNCc1ccc(F)cc1` (centres undefined) registered an IC50 of over 1000 µM.

The compound `O=C(CNCc1ccccc1)N1CCCC1` had an IC50 of 1000 µM. Same read-out and setting: for `FC(CNc1ccccc1)=C1CCCCC1` the value was over 250 µM; for `S=C(CNCc1ccccc1)N1CCCCC1`, over 1000 µM. On the same count and under the same terms, in the case of `FC(CNCCc1ccccc1)=C1CCCCC1` it was over 1000 µM; in that of `N#CC1CCC/C1=C(\F)CNCc1ccc(F)cc1` (centres undefined), over 500 µM. Regarding `S=C(CNC1CCCCC1)N1CCCCC1`, the IC50 is over 1000 µM. On the same count and under the same terms, for `CN(C)CCCNCC(F)=C1CCCCC1` the value was over 1000 µM. Turning to `S=C(CNCc1ccc2c(c1)OCO2)N1CCCCC1`, the IC50 is over 1000 µM. On the same count and under the same terms, for `FC(CNCCc1ccccc1)=C1CCCC1` the value was over 1000 µM. Compound `C(CNC1CCCCC1)=C1CCCC1` yielded an IC50 of over 1000 µM.

In turn, `FC(CNCCc1ccccn1)=C1CCCC1` came in with an IC50 of over 1000 µM.

As to `CN1CCC(NCC(F)=C2CCCCC2)CC1`, the IC50 is over 125 µM. The same measure, in the same setting: in the case of `FC(CNCc1ccccc1)=C1CCCCC1` it was over 1000 µM. The same measure, in the same setting: in the case of `O=C(CNCc1ccccc1)N1CCCCC1` it was over 1000 µM.

The compound `FC(CNC1CCNCC1)=C1CCCCC1` showed an IC50 of over 1000 µM. On the same count and under the same terms, for `FC(CNC1CCCCC1)=C1CCCC1` the value was over 1000 µM; for `N#CC1CCC/C1=C(/F)CNCCc1ccccc1` (centres undefined), over 500 µM; for `C(CNCc1ccccc1)=C1CCCC1`, over 1000 µM. For `O=C(CNCc1ccc2c(c1)OCO2)N1CCCC1`, the IC50 is over 1000 µM. On the same count and under the same terms, in the case of `O=C(CNC1CCCCC1)N1CCCCC1` it was over 1000 µM; in that of `O=C(CNC1CCCCC1)N1CCCC1`, 148 µM; in that of `C(CNCc1ccc2c(c1)OCO2)=C1CCCC1`, over 250 µM. On the same count and under the same terms, for `FC(CNC12CC3CC(CC(C3)C1)C2)=C1CCCCC1` the value was over 250 µM.

With `CN(C)CCCNCC(F)=C1CCCC1`, the IC50 was over 1000 µM. `FC(CNCc1ccc(F)cc1)=C1CCCC1`: the IC50 is over 1000 µM.

In the case of `FC(CNCc1ccc2c(c1)OCO2)=C1CCCCC1`, the IC50 was over 250 µM. Same read-out and setting: for `FC(CNCc1cccc(C(F)(F)F)c1)=C1CCCCC1` the value was over 125 µM.

For `COc1ccc(CNCC(F)=C2CCCCC2)cc1`, the IC50 was over 250 µM. Regarding `FC(CNC1CCCCC1)=C1CCCCC1`, the IC50 is over 500 µM. Same read-out and setting: for `FC(CNC1CCN(Cc2ccccc2)CC1)=C1CCCC1` the value was over 250 µM; for `FC(CNCc1ccc(F)cc1)=C1CCCCC1`, over 250 µM; for `FC(CNC1CCN(Cc2ccccc2)CC1)=C1CCCCC1`, over 250 µM.

`N#CC1CCC/C1=C(\F)CNCCc1ccccc1` (centres undefined) gave an IC50 of over 1000 µM. Consider `FC(CNCc1ccccc1)=C1CCCC1`, for which the IC50 is over 1000 µM. `COc1ccc(CNCC(F)=C2CCCC2)cc1` had an IC50 of over 1000 µM.

`O=C(CNCc1ccc2c(c1)OCO2)N1CCCCC1` returned an IC50 of over 1000 µM.
